Common to all, as to test: combination Emax (second highest fraction inhibited in the dose matrix, 72 h); higher = more inhibition; extreme values may be limits of the assay
In assay [1] the test system is 769-P (Kidney Carcinoma). In short, it runs like this:
(§1)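 Cell lines grown in DMEM/F12 or RPMI with 10% FBS were plated in 1536-well plates and held 24 hours at 37°C, 5% CO2 before 72 hours of exposure to two-drug dose matrices, with DMSO typically at 0.2%. CellTiter-Glo 2.0 luminescence gave viability, which was converted to inhibition. Vehicle wells were set to 0 and blank wells to 1. Combination Emax is the second-highest inhibition in the matrix, and Bliss excess is the observed combination effect minus the expected EA + EB − EA·EB, where EA and EB are the single-agent effects.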

Assay [2] relates to A253 (Head and Neck Carcinoma). In short, it runs like this:
as §1

The subject of assay [3] is DMS-53 (Small Cell Lung Carcinoma). Put shortly:
as §1

Assay [4] relates to EW-7 (Ewing's Sarcoma). In short, it runs like this: as §1
The test system of assay [5] is GCT (Other Solid Carcinomas). Put shortly: as §1
For assay [6], the system named is HCC1395 (Breast Carcinoma). Put shortly:
as §1

Assay [7] has as its system HT55 (Colorectal Carcinoma). Put shortly:
as §1

Assay [8] deals with JHH-2 (Hepatocellular Carcinoma). Put shortly:
as §1

Assay [9] relates to JHU-022 (Oral Cavity Carcinoma). Put shortly: as §1
Assay [10] concerns KP-N-YN (Neuroblastoma). In short, it runs like this: as §1
For assay [11], the system named is LS-411N (Colorectal Carcinoma). Put shortly: as §1
Assay [12] relates to LU-165 (Small Cell Lung Carcinoma). Put shortly: as §1
For assay [13], the system named is MDA-MB-436 (Breast Carcinoma). In short, it runs like this: as §1
In assay [14] the test system is NB13 (Neuroblastoma). Put shortly:
as §1

The subject of assay [15] is NCI-H441 (Lung Adenocarcinoma). Put shortly: as §1
Assay [16] relates to NCI-H716 (Colorectal Carcinoma). Put shortly: as §1
Assay [17] relates to PEO1 (Ovarian Carcinoma). In short, it runs like this: as §1
Assay [18] relates to SW620 (Colorectal Carcinoma). In short, it runs like this: as §1
Assay [19] deals with UACC-812 (Breast Carcinoma). In short, it runs like this: as §1
The subject of assay [20] is WM1552C (Melanoma). In short, it runs like this: as §1

With `CN(C)CCCOc1ccc(-c2ccc3ncc4c(c3c2)n(C2CCOCC2)c(=O)n4C)cn1` [AZD0156] + C=CCn1c(=O)c2cnc(Nc3ccc(N4CCN(C)CC4)cc3)nc2n1-c1cccc(C(C)(C)O)n1 [AZD1775] (first compound max 1 µM, partner max 1 µM), the “combination Emax” value in assay [1] stood at 0.766; in assay [2], 0.327; in [3] it was 0.148; in [4], 0.884; in assay [5], 0.413; in assay [6] it was 0.682. The “combination Emax” value in [7] was found to be 0.407; in assay [8] it was 0.53; in assay [9], 0.36; in assay [10], 0.95; in assay [11], 0.641; in assay [12], 0.38. For the same compound, the “combination Emax” value in assay [13] amounted to 0.195; in assay [14] it was 0.906; in assay [15] it was 0.329; in assay [16], 0.482; in assay [17], 0.341; in assay [18], 0.495. Further, the “combination Emax” value was found to be 0.156 in [19] and 0.476 in assay [20].
In the case of `C[C@@H]1COCCN1c1cc(C2([S@](C)(=N)=O)CC2)nc(-c2ccnc3[nH]ccc23)n1` [AZD6738] + O=C(c1cc(Cc2n[nH]c(=O)c3ccccc23)ccc1F)N1CCN(C(=O)C2CC2)CC1 [Olaparib] (first compound max 10 µM, 7x7, partner max 10 µM), the “combination Emax” value in assay [1] is 0.756; in assay [2] it was 0.806; in assay [3], 0.148; in [4] it was 0.929; in assay [5] it was 0.392; in assay [6], 0.852. The “combination Emax” value in assay [7] was found to be 0.446; in assay [8] it was 0.674; in assay [9], 0.563; in assay [10], 0.76; in assay [11], 0.383; in assay [12], 0.309. For the same compound, the “combination Emax” value in assay [13] was 0.349; in assay [14], 0.947; in assay [15] it was 0.476; in assay [16] it was 0.468; in assay [17], 0.585; in assay [18], 0.57. In addition, the “combination Emax” value was 0.351 in assay [19] and 0.679 in assay [20].
`CC1(C)CCC(CN2CCN(c3ccc(C(=O)NS(=O)(=O)c4ccc(NCC5CCOCC5)c([N+](=O)[O-])c4)c(Oc4cnc5[nH]ccc5c4)c3)CC2)=C(c2ccc(Cl)cc2)C1` [Venetoclax] + CCN(CCO)CCCOc1ccc2c(Nc3cc(CC(=O)Nc4cccc(F)c4)[nH]n3)ncnc2c1 [AZD2811] (first compound max 1 µM, 7x7, partner max 1 µM): the “combination Emax” value in assay [1] is 0.204; in assay [2] it was 0.268; in assay [3], 0.482; in assay [4], 0.887; in assay [5], 0.273; in assay [6] it was 0.639. Besides, the “combination Emax” value in assay [7] stood at 0.235; in assay [8], 0.27; in [9], 0.292; in assay [10], 0.913; in assay [11], 0.0756; in assay [12], 0.161. Besides, the “combination Emax” value turned out to be 0.127 in assay [13]; 0.548 in assay [14]; 0.365 in assay [15]; 0.198 in assay [16]; 0.252 in [17]; 0.229 in [18]. Further, the “combination Emax” value is 0.186 in [19] and 0.464 in [20].
Take `CCN(CCO)CCCOc1ccc2c(Nc3cc(CC(=O)Nc4cccc(F)c4)[nH]n3)ncnc2c1` [AZD2811] + C[C@@H]1COCCN1C2=NC(=NC(=C2)C3(CC3)[S@](=N)(=O)C)C4=C5C=CNC5=NC=C4 [AZD6738] (first compound max 1 µM, 7x7, partner max 10 µM): the “combination Emax” value is 0.85 in assay [1]; 0.756 in assay [2]; 0.144 in [3]; 0.902 in assay [4]; 0.242 in assay [5]; 0.785 in assay [6]. The “combination Emax” value was 0.515 in assay [7]; 0.62 in assay [8]; 0.535 in assay [9]; 0.957 in [10]; 0.819 in [11]; 0.38 in assay [12]. The “combination Emax” value in assay [13] was 0.311; in assay [14], 0.941; in [15] it was 0.407; in assay [16], 0.515; in assay [17] it was 0.553; in assay [18], 0.417. Further, the results for the “combination Emax” value in assay [19] and in assay [20] were 0.323 and 0.642, respectively.
Consider `Cn1cnc2c(F)c(Nc3ccc(Br)cc3Cl)c(C(=O)NOCCO)cc21` [Selumetinib] + CCN(CCO)CCCOc1ccc2c(Nc3cc(CC(=O)Nc4cccc(F)c4)[nH]n3)ncnc2c1 [AZD2811] (first compound max 10 µM, 7x7, partner max 1 µM), for which the “combination Emax” value in [1] stood at 0.356; in [2], 0.348; in assay [3] it was 0.158; in [4], 0.509; in assay [5], 0.384; in assay [6] it was 0.212. Also, the “combination Emax” value in assay [7] came out at 0.741; in assay [8] it was 0.325; in assay [9] it was 0.54; in assay [10] it was 0.581; in [11] it was 0.786; in [12], 0.158. For the same compound, the “combination Emax” value in assay [13] stood at 0.264; in [14] it was 0.367; in [15], 0.304; in [16], 0.428; in assay [17], 0.29; in assay [18], 0.863. Further, the figures for the “combination Emax” value in assay [19] and in [20] were 0.166 and 0.439, respectively.
With `CC1(C)CCC(CN2CCN(c3ccc(C(=O)NS(=O)(=O)c4ccc(NCC5CCOCC5)c([N+](=O)[O-])c4)c(Oc4cnc5[nH]ccc5c4)c3)CC2)=C(c2ccc(Cl)cc2)C1` [Venetoclax] + COc1cc(Nc2ncc3c(n2)-c2ccc(Cl)cc2C(c2c(F)cccc2OC)=NC3)ccc1C(=O)O [Alisertib] (first compound max 1 µM, 7x7, partner max 10 µM), the “combination Emax” value was determined as 0.303 in assay [1]; 0.444 in assay [2]; 0.809 in [3]; 0.932 in assay [4]; 0.463 in [5]; 0.688 in assay [6]. Further, the “combination Emax” value is 0.347 in assay [7]; 0.525 in [8]; 0.382 in assay [9]; 0.827 in assay [10]; 0.0718 in [11]; 0.241 in assay [12]. For the same compound, the “combination Emax” value was determined as 0.246 in assay [13]; 0.932 in assay [14]; 0.343 in [15]; 0.82 in [16]; 0.276 in assay [17]; 0.387 in assay [18]. The “combination Emax” value amounted to 0.224 in assay [19] and 0.508 in assay [20].

The values are drawn from the supplement of paper PMC11061612.
